Results taken from patent US12258339B2, “Macrocyclic complexes of alpha-emitting radionuclides and their use in targeted radiotherapy of cancer” (Cornell University, priority 2018, dated 2025).

How the values were obtained:
[1] = Kinetic inertness of La^3+ and Lu^3+ complexes of macropa: transchelation challenge with EDTA/DTPA; type: physicochemical; settings: in the presence of 1000 equiv of DTPA, pH 7.4, monitored 21 days by UV
Protocol: Kinetic Inertness of La^3+ and Lu^3+ Complexes of Macropa: Transchelation Challenge. A stock solution of ethylenediaminetetraacetic acid (EDTA, 100 mM) was made in MOPS buffer (prepared as described above) by adjusting the pH of the initial suspension to 6.6 using aqueous NMe4OH.
The preformed La^3+ and Lu^3+ complexes of macropa were challenged with EDTA.
The complex formed in situ between La^3+ and macropa was more rigorously challenged with excess DTPA. A solution containing 500 μM of complex, prepared using the LaCl3 and macropa stock solutions described above, was left to equilibrate for 5 min.
Before assessing its Ac-chelation properties, complex formation was evaluated in situ between macropa and cold La^3+ and Lu^3+ ions.

[2] = In vivo biodistribution of ^225Ac complexes of macropa and DOTA and of ^225Ac(NO3)3 in mice; design: species or system C57BL/6 mice
Protocol: In Vivo Biodistribution of ^225Ac Complexes of Macropa and DOTA. All experiments were approved by the Institutional Animal Care Committee (IACC) of the University of British Columbia and were performed in accordance with the Canadian Council on Animal Care Guidelines. A total of 9 female C57BL/6 mice (6-8 weeks old, 20-25 g) were used for the biodistribution study of each radiometal complex, n=3 for each time point.
Macropa (100 μL of a 1 mg/mL solution in NH4OAc) was diluted with 387 μL of NH4OAc (1 M, pH 7), and an aliquot (203 μL) of ^225Ac(NO3)3 (˜157 kBq) was then added; the pH of this solution was adjusted to 6.5-7 by the addition of 1 M NaOH (210 μL, trace metal grade). After 5 min at ambient temperature, the reaction solution was analyzed by TLC (0.4 M pH 4 sodium citrate as the eluent), which confirmed >95% radiochemical yield. The reaction was allowed to proceed overnight, and the radiochemical yield was again confirmed to be >95% the following morning. At this time, mice were anesthetized by 2% isoflurane, and approximately 100 μL (10-15 kBq) of the [^225Ac(macropa)]^+ complex were injected into the tail vein of each mouse. After injection, mice were allowed to recover and roam freely in their cages, and were euthanized by CO2 inhalation at 15 min, 1 h, or 5 h (n=3 at each time point) post-injection. Blood was collected by cardiac puncture and placed into an appropriate test tube for scintillation counting. Tissues collected included heart, liver, kidneys, lungs, small intestine, large intestine, brain, bladder, spleen, stomach, pancreas, bone, thyroid, tail, urine, and feces. Tissues were weighed and then counted with a calibrated gamma counter (Packard, Cobra II model 5002) using three energy windows: 60-120 keV (window A), 180-260 keV (window B), and 400-480 keV (window C). Counting was performed both immediately after sacrifice and after 7 days; counts were decay corrected from the time of injection and then converted to the percentage of injected dose (% ID) per gram of tissue (% ID/g). […]
The biodistribution studies of [^225Ac(DOTA)]^− and ^225Ac(NO3)3 were carried out as described above for [^225Ac(macropa)]^+, with the following modifications. [^225Ac(DOTA)^− was prepared by adding ^225Ac(NO3)3 (338 μL, 1.1 MBq) to a solution of DOTA (100 μg, 20 mg/mL in H2O) in NH4OAc (467 μL, 0.15 M, pH 7). The pH of the solution was adjusted to 7 using NH4OAc (150 μL, 1 M, pH 7) and the solution was heated at 85° C. for 45 min. RCY>99% was confirmed by TLC as described above. [^225Ac(DOTA)]^− was diluted with saline to a final concentration of 0.05 MBq/100 μL, and 100 μL were injected into each mouse. ^225Ac(NO3)3 (˜58 μL, 0.4 MBq) was diluted and injected in the same manner as [^225Ac(DOTA)]^−. One mouse that was to be euthanized at the 5 h time point in the [^225Ac(DOTA)]^− study died shortly after injection. In the same manner, one mouse that was to be euthanized at the 1 h time point in the ^225Ac(NO3)3 study died.
The in vivo stability [^225Ac(macropa)]^+ was examined by comparing its biodistribution to those of ^225Ac(NO3)3 and [^225Ac(DOTA)]^−. C57BL/6 mice were injected via tail vein with 10-50 kBq of each radiometal complex and were sacrificed after 15 min, 1 h, or 5 h. The amount of ^225Ac retained in each organ was quantified by gamma counting and reported as the percent of injected dose per gram of tissue (% ID/g). The results of these studies are compiled in Tables 1-3. Inadequate stability of an ^225Ac complex leading to the loss of radioisotope in vivo is manifested by the accumulation of ^225Ac in the liver, spleen, and bone of mice.^[11,12,32] […] The biodistribution profile of [^225Ac(macropa)]^+ (FIG. 3B) differs markedly from that of ^225Ac(NO3)3. […] Its biodistribution profile was similar to that of [^225Ac(DOTA)]^− (FIG. 3C), which has been previously shown to retain ^225Ac in vivo.^[7]

[3] = 1 h after i.v. injection, energy window C (400-480 keV)
[4] = 5 h after i.v. injection, energy window A (60-120 keV)

Compound: O=C([O-])c1cccc(CN2CCOCCOCCN(Cc3cccc(C(=O)O)n3)CCOCCOCC2)n1.[La+3] [La^3+ complex]
- time complex remained intact [1]: up to 21 days

Compound: O=C([O-])CN1CCN(CC(=O)[O-])CCN(CC(=O)[O-])CCN(CC(=O)[O-])CC1.[225Ac+3] [[^225Ac(DOTA)]^−, reference compound]
- Organ distribution: brain [2, 3]: 0.0380 % ID/g
- Organ distribution: blood [2, 4]: 0.0140 % ID/g
- Organ distribution: lungs [2, 4]: 0.0390 % ID/g

Compound: O=[N+]([O-])[O-].O=[N+]([O-])[O-].O=[N+]([O-])[O-].[225Ac] [^225Ac(NO3)3, reference compound]
- Organ distribution: feces ([2]; 15 min after i.v. injection, energy window A (60-120 keV)): 0.240 % ID/g
- Organ distribution: feces ([2]; 1 h after i.v. injection, energy window B (180-260 keV)): 0.3300 % ID/g
- Organ distribution: thyroids [2, 3]: 0.0000 % ID/g
- Organ distribution: brain ([2]; 5 h after i.v. injection, energy window B (180-260 keV)): 0.0290 % ID/g
- Organ distribution: brain ([2]; 5 h after i.v. injection, energy window C (400-480 keV)): 0.0430 % ID/g
- blood clearance and excretion (in words) ([2]; i.v. injection, up to 5 h): slow blood clearance and excretion
- organ accumulation (in words) ([2]; i.v. injection, up to 5 h): large accumulation in the liver and spleen
